Reference: patent US6174858A, “Conjugates useful in the treatment of prostate cancer” (Merck & Co., Inc., priority 1998, dated 2001)
Read-outs that look alike come from different tables or passages of the source. Square brackets hold non-standard residues; d marks the D form. dAc‑VIN = 4-desacetylvinblastine; Chg = N[C@H](C(=O)O)C1CCCCC1

Key:
[1] = system: LNCaP prostate tumor cells; experiment: In vitro cytotoxicity, Alamar Blue assay, LNCaP cell kill; format: cell-based
Method: (§1) In vitro Assay of Cytotoxicity of Peptidyl Derivatives of Vinca Drugs
(§2) Specifically, cell cultures of LNCap prostate tumor cells, Colo32ODM cells (designated C320) or T47D cells in 96 well plates was diluted with medium containing various concentrations of a given conjugate (final plate well volume of 200 μl). […] The cells were incubated for 3 days at 37° C., 20 μl of Alamar Blue is added to the assay well. The cells were further incubated and the assay plates were read on a EL-310 ELISA reader at the dual wavelengths of 570 and 600 nm at 4 and 7 hours after addition of Alamar Blue. Relative percentage viability at the various concentration of conjugate tested was then calculated versus control (no conjugate) cultures and an EC50 was determined. Unless otherwise indicated, the acetate salt of the conjugate was tested.

[2] = system: Colo320DM cells; experiment: In vitro cytotoxicity, Alamar Blue assay, Colo320DM control cell line (does not express free PSA); format: cell-based
Method: as §1
as §2, with “The cytotoxicities of the cleaveable oligopeptide-vinca drug conjugates, prepared as described in Example 3, against a line of cells which is known to be killed by unmodified vinca drug was assessed with an Alamar Blue assay. Specifically,” for “Specifically,”

[3] = target: T1, free PSA (York PSA) (Homo sapiens, UniProt P07288); experiment: Recognition of oligopeptide-vinca drug conjugates by free PSA (time to 50% cleavage, HPLC); format: biochemical; conditions: for Time to 50% Substrate Cleavage by York PSA: conjugate to PSA molar ratio 100 to 1, pH 7.4
T1 construct: purchased York ('York PSA')
Method: The reaction was quenched after various reaction times by the addition of trifluoroacetic acid (TFA) to a final 1% (volume/volume). Alternatively the reaction is quenched with 10 mM ZnCl2. The quenched reaction was analyzed by HPLC on a reversed-phase C18 column using an aqueous 0.1%TFA/acetonitrile gradient. The amount of time (in minutes) required for 50% cleavage of the noted oligopeptide-cytotoxic agent conjugates with enzymatically active free PSA were then calculated.

[4] = 72 HRS, read-out: LNCaP Cell Kill in 72 HRS. {48 HRS} EC 50
[5] = 72 HRS, read-out: Colo320DM EC 50
[6] = 72 HRS, second part of Table 2, read-out: LNCaP Cell Kill in 72 HRS. {48 HRS} EC 50
[7] = 72 HRS, second part of Table 2, read-out: Colo320DM EC 50

T1 sequence (P07288 25-261): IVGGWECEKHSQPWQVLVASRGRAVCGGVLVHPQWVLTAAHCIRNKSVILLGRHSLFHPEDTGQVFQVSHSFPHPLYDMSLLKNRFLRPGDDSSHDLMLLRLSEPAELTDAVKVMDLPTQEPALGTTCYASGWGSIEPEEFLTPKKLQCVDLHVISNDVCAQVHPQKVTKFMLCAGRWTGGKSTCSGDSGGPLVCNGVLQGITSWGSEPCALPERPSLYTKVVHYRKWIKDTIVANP

Row | Molecule | EC50 [1, 4] [µM] | EC50 [2, 5] [µM] | EC50 [1, 6] [µM] | EC50 [2, 7] [µM] | further results
1 | CCC1(O)CC2CN(CCc3c([nH]c4ccccc34)C(C(=O)OC)(c3cc4c(cc3OC)N(C)C3C(O)(C(=O)OC)C(OC(=O)C5CC(O)CN5)C5(CC)C=CCN6CCC43C65)C2)C1 [(4-O-4-trans-L-Hyp)-dAc-VIN] | 0.6 | 1.1 |  |  | 
2 | 4-O-(Ac-4-trans-L-HypSSChgQSV-glycolyl)-VIN: peptide-vinca drug conjugate, SEQ ID NO 88 (XSSXQSV; N-acetyl; glycolyl linker; vinblastine conjugate) | 4.1 | 8.1 |  |  | Time to 50% Substrate Cleavage by York PSA [3]: 8 min
3 | CC[C@]1(O)C[C@H]2CN(CCc3c([nH]c4ccccc34)[C@@](C(=O)OC)(c3cc4c(cc3OC)N(C)[C@H]3[C@@](O)(C(=O)OC)[C@H](OC(=O)[C@@H](N)CC(C)C)[C@]5(CC)C=CCN6CC[C@]43[C@@H]65)C2)C1 [4-O-leucyl-(dAc)-VIN] |  |  | 4.5 | 4.5 | 
4 | 4-O-((2-OH)Ac-Abu-SSChgQ-S-P)-dAc-VIN: peptide-vinca drug conjugate, SEQ ID NO 91 (XSSXQSP; N-hydroxyacetyl; desacetylvinblastine conjugate) | 11.9 | 52.5 |  |  | Time to 50% Substrate Cleavage by York PSA [3]: 110 min
5 | 4-O-(Ac-SSChgQS-Gly)-(dAc)-VIN: peptide-vinca drug conjugate, SEQ ID NO 98 (Ac-SS[Chg]QSG-{dAc‑VIN}; also: C-terminal ester to 4-OH of desacetylvinblastine) | 16.3 | 16.3 |  |  | Time to 50% Substrate Cleavage by York PSA [3]: 55 min
6 | 4-O-(Ac-4-trans-L-HypSSChgQSV-lactyl)-dAc-VIN: peptide-vinca drug conjugate, SEQ ID NO 94 | 3.1 | 8.1 |  |  | Remark printed with the cleavage time (stability of conjugate / fate of product) ([3]; PSA digestion): stable; Time to 50% Substrate Cleavage by York PSA [3]: 7 min
7 | CC[C@]1(O)C[C@@H]2CN(CCc3c([nH]c4ccccc34)[C@@](C(=O)OC)(c3cc4c(cc3OC)N(C)[C@H]3[C@@](O)(C(=O)OC)[C@H](OC(C)=O)[C@]5(CC)C=CCN6CC[C@]43[C@@H]65)C2)C1 [VINBLASTINE, vinblastine, reference compound] |  |  |  |  | EC50 ([1]; Homo sapiens, 72 HRS, read-out: LNCaP Cell Kill in 72 HRS. {48 HRS} EC 50): 0.5 µM; EC50 ([2]; Homo sapiens, COLO 320DM, 72 HRS, read-out: Colo320DM EC 50): 0.5 µM
8 | CCC1(O)CC2CN(CCc3c([nH]c4ccccc34)C(C(=O)OC)(c3cc4c(cc3OC)N(C)C3C(O)(C(=O)OC)C(OC(=O)CO)C5(CC)C=CCN6CCC43C65)C2)C1 (stereo not shown) [4-hydroxyacetyl-VIN] |  |  | 1.3 | 3.3 | 
9 | CCC1(O)CC2CN(CCc3c([nH]c4ccccc34)C(C(=O)OC)(c3cc4c(cc3OC)N(C)C3C(O)(C(=O)OC)C(OC(=O)C(C)NC)C5(CC)C=CCN6CCC43C65)C2)C1 (stereo not shown) [4-O-[N-Me-dA]-dAc-VIN] |  |  | 1 | 1.7 | 
10 | CCC1(O)CC2CN(CCc3c([nH]c4ccccc34)C(C(=O)OC)(c3cc4c(cc3OC)N(C)C3C(O)(C(=O)OC)C(OC(=O)C5CCCN5)C5(CC)C=CCN6CCC43C65)C2)C1 (stereo not shown) [4-O-(prolyl)-dAc-VIN, 4-des- Acetylvinblastine 4-O-(Prolyl) ester] |  |  | 0.7 | 4.1 | 
11 | 4-O-(Ac-4-trans-L-HypSSChgQ-S-P)-dAc-VIN: peptide-vinca drug conjugate, SEQ ID NO 96 (XSSXQSP; N-acetyl; desacetylvinblastine conjugate) | 47.9 | 83.9 |  |  | Substrate cleavage by York PSA after 1 HOUR ([3]; 1 HOUR): 8%; EC50 ([1]; in 5% FBS, read-out: LNCaP Cell Kill EC 50 in 5% FBS): > 16 µM; EC50 ([2]; in 5% FBS, read-out: Colo320DM EC 50 in 5% FBS): 26 µM
12 | 4-O-(Ac-Abu-SSChgQ-SP)-dAc-VIN: peptide-vinca drug conjugate, SEQ ID NO 90 (XSSXQSP; N-acetyl; desacetylvinblastine conjugate) | 9.7 | 14.5 |  |  | Time to 50% Substrate Cleavage by York PSA [3]: 80 min; EC50 ([1]; in 0.5% FBS, read-out: LNCaP Cell Kill EC 50 in 0.5% FBS): > 5 µM; EC50 ([2]; in 0.5% FBS, read-out: Colo320DM EC 50 in 0.5% FBS): 23.8 µM
13 | 4-O-(Ac-3-Pal-SSChgQS-P)-dAc-VIN: peptide-vinca drug conjugate, SEQ ID NO 92 | 5.8 | 8 |  |  | Time to 50% Substrate Cleavage by York PSA [3]: 80 min
14 | CCC1(O)CC2CN(CCc3c([nH]c4ccccc34)C(C(=O)OC)(c3cc4c(cc3OC)N(C)C3C(O)(C(=O)OC)C(OC(=O)C5CCCN5C(=O)C(CO)NC(=O)C(N)CO)C5(CC)C=CCN6CCC43C65)C2)C1 (stereo not shown) [4-O-(SSP)-dAc-VIN] |  |  | 2 | 14.5 | 
15 | Ac-AbuSSChgQ-SS-(4-O-P)-dAc-VIN: peptide-vinca drug conjugate, SEQ ID NO 109 in Table 1, 108 in Table 2 (XSSXQSSP; N-acetyl; desacetylvinblastine conjugate) |  |  | 12.8 | 28.4 | Time to 50% Substrate Cleavage by York PSA [3]: 7 min
16 | CCC1(O)CC2CN(CCc3c([nH]c4ccccc34)C(C(=O)OC)(c3cc4c(cc3OC)N(C)C3C(O)(C(=O)OC)C(OC(=O)C5CCCN5C(=O)C(N)CO)C5(CC)C=CCN6CCC43C65)C2)C1 (stereo not shown) [4-O-(SP)-dAc-VIN] |  |  | 0.1 | 0.3 | 
17 | CCC1(O)CC2CN(CCc3c([nH]c4ccccc34)C(C(=O)OC)(c3cc4c(cc3OC)N(C)C3C(O)(C(=O)OC)C(OC(=O)C5CCCCN5)C5(CC)C=CCN6CCC43C65)C2)C1 (stereo not shown) [4-O-pipecolyl-dAc-VIN] |  |  | 0.7 | 0.7 | 
18 | CC[C@]1(O)C[C@@H]2CN(CCc3c([nH]c4ccccc34)[C@@](C(=O)OC)(c3cc4c(cc3OC)N(C)[C@H]3[C@@](O)(C(=O)OC)[C@H](OC(=O)CN)[C@]5(CC)C=CCN6CC[C@]43[C@@H]65)C2)C1 [4-O-glycine-(dAc)-VIN] | 0.3 | 1.8 |  |  | 
19 | CCC(N)C(=O)O[C@@H]1[C@]2(CC)C=CCN3CC[C@@]4(c5cc([C@@]6(C(=O)OC)C[C@@H]7CN(CCc8c6[nH]c6ccccc86)C[C@](O)(CC)C7)c(OC)cc5N(C)[C@H]4[C@@]1(O)C(=O)OC)[C@@H]32 (stereo partly shown) [4-O-Abu-(dAc)-VIN, I isoform] |  |  | 3.9 | 2.3 | 
20 | CCC1(O)CC2CN(CCc3c([nH]c4ccccc34)C(C(=O)OC)(c3cc4c(cc3OC)N(C)C3C(O)(C(=O)OC)C(OC(=O)C5CCCN5)C5(CC)C=CCN6CCC43C65)C2)C1 (stereo not shown) [4-O-(d)-prolyl-(dAc)-VIN ester] |  |  | 2 | 4.1 | 
21 | CCC(N)C(=O)OC1C2(CC)C=CCN3CCC4(c5cc(C6(C(=O)OC)CC7CN(CCc8c6[nH]c6ccccc86)CC(O)(CC)C7)c(OC)cc5N(C)C4C1(O)C(=O)OC)C32 (racemic) [4-O-Abu-(dAc)-VIN, racemic mixture] |  |  | 3.8 | 5.5 | 
22 | CC[C@]1(O)C[C@H]2CN(CCc3c([nH]c4ccccc34)[C@@](C(=O)OC)(c3cc4c(cc3OC)N(C)[C@H]3[C@@](O)(C(=O)OC)[C@H](OC(=O)CNC)[C@]5(CC)C=CCN6CC[C@]43[C@@H]65)C2)C1 [4-O-sarcosyl-(dAc)-VIN] | 1.3 | 1.8 |  |  | 
23 | CCC1(O)CC2CN(CCc3c([nH]c4ccccc34)C(C(=O)OC)(c3cc4c(cc3OC)N(C)C3C(O)(C(=O)OC)C(OC(=O)C(C)N)C5(CC)C=CCN6CCC43C65)C2)C1 (stereo not shown) [(4-O-Ala)-(dAc)-VIN] |  |  | 0.6 | 4.2 | 
24 | CCC1(O)CC2CN(CCc3c([nH]c4ccccc34)C(C(=O)OC)(c3cc4c(cc3OC)N(C)C3C(O)(C(=O)OC)C(OC(=O)C(N)Cc5ccccc5)C5(CC)C=CCN6CCC43C65)C2)C1 (stereo not shown) [(4-O-Phe)-(dAc)-VIN] |  |  | 3.8 | 2.2 | 
